Values of other authors, collected in the PKSmart pharmacokinetics tables (Seal et al. 2025).
*1 amine or outer side, *2 acyl side, *3 side chain or, on linkers, in order; H or OH if unused. Where a SMILES comes first, the peptide text is derived from it. Bridges are numbered along the chain shown (N, C = ends). [ ]: non-standard residue; d: D form. The star is where a group is joined. ξ: configuration not given here. X1 = O=C1CC(C(=O)[*:2])N([*:1])CC1CS[C@@H]1CN2CCC1CC2; ξThr(3R)(O-yl) = C[C@@H](O[*:3])C(N[*:1])C(=O)[*:2]; ξNMePhe(4-NMe2) = CNC(Cc1ccc(N(C)C)cc1)C(=O)O; Picolinoyl(3-OH) = O=C(c1ncccc1O)*; ξPhg = NC(C(=O)O)c1ccccc1; ξAbu = CCC(N)C(=O)O; ξP = O=C(O)C1CCCN1

Experiment: Lombardo, Berellini, Obach 2018, Drug Metab Dispos 46:1466, doi 10.1124/dmd.118.082966
Conditions: human; for MRT / Vd / clearance / half-life: in vivo, iv; for fraction unbound: plasma

Row | Structure (SMILES) | MRT | Vd | clearance | half-life | fraction unbound
1 | CC[C@@H](c1cccc(O)c1)[C@@H](C)CN(C)C | 3.62 h | 4.64 L/kg | 21.3 mL/min/kg | 2.39 h | 
2 | C[C@H]1COc2c(N3CCN(C)CC3)c(F)c(N)c3c(=O)c(C(=O)O)cn1c23 | 18.3 h | 2.42 L/kg | 2.2 mL/min/kg | 20.1 h | 0.82
3 | CCOc1ccc(CC2=NCCc3cc(OCC)c(OCC)cc32)cc1OCC | 9 h | 1.9 L/kg | 3.5 mL/min/kg | 9.3 h | 
4 | CCCC=c1ncc(=CC(Cc2cccs2)C(=O)O)n1Cc1ccc(C(=O)O)cc1 (stereo unspecified) | 1.5 h | 0.17 L/kg | 1.9 mL/min/kg | 2.1 h | 
5 | CCN(CC)CCN(Cc1ccc(-c2ccc(C(F)(F)F)cc2)cc1)C(=O)Cn1c(SCc2ccc(F)cc2)nc(=O)c2c1CCC2 | 48.1 h | 11.9 L/kg | 4.11 mL/min/kg | 40.9 h | 
6 | Nc1nc(=O)c2c([nH]1)NCC(CNc1ccc(C(=O)NC(CCC(=O)O)C(=O)O)cc1)N2C=O (stereo unspecified) | 0.8 h | 0.25 L/kg | 5.8 mL/min/kg | 1.3 h | 
7 | CCCCCCCN(CC)CCCC(O)c1ccc(NS(C)(=O)=O)cc1 (stereo unspecified) | 7.7 h | 12 L/kg | 26 mL/min/kg | 7 h | 
8 | C[C@@]12CCCCC[C@@H](Cc3ccc(O)cc31)[C@@H]2N | 4.6 h | 5.6 L/kg | 27.5 mL/min/kg | 3.9 h | 0.08
9 | Cc1c(OCC(F)(F)F)ccnc1C[S+](O)c1nc2ccccc2[n-]1 (stereo unspecified) | 1.1 h | 0.28 L/kg | 4.4 mL/min/kg | 1 h | 
10 | COCC(NC(C)=O)C(=O)NCc1ccccc1 (stereo unspecified) | 17.2 h | 0.58 L/kg | 0.57 mL/min/kg | 12.3 h | 0.85
11 | CC(CCc1ccc2c(c1)OCO2)NCC(O)c1ccc(O)c(C(N)=O)c1 (stereo unspecified) | 8.2 h | 7.9 L/kg | 16 mL/min/kg | 11 h | 
12 | Cc1[nH]cnc1CN1CCc2c(c3ccccc3n2C)C1=O | 2.1 h | 1.1 L/kg | 8.7 mL/min/kg | 1.6 h | 
13 | C=C1/C(=C\C=C2/CCC[C@]3(C)[C@@H]([C@H](C)CCCC(C)C)CC[C@@H]23)C[C@@H](O)C[C@@H]1O |  |  | 0.82 mL/min/kg | 48.6 h | 
14 | CNC(=O)C(c1ccccc1)N1CCc2cc(OC)c(OC)cc2[C@@H]1CCc1ccc(C(F)(F)F)cc1 (stereo partly specified) | 15.9 h | 9.75 L/kg | 10.2 mL/min/kg | 34.3 h | 
15 | Nc1ccn([C@@H]2C=C(CO)[C@@H](O)[C@H]2O)c(=O)n1 |  |  | 3.61 mL/min/kg |  | 
16 | C1COC(NC(C2CC2)C2CC2)=N1 | 10.6 h | 4.5 L/kg | 7.1 mL/min/kg | 8.3 h | 0.9
17 | C=C[C@@H]1C[C@]1(NC(=O)C1C[C@@H](Oc2ncc(OC)c3ccc(Cl)cc23)CN1C(=O)C(NC(=O)OC(C)(C)C)C(C)(C)C)C(=O)NS(=O)(=O)C1CC1 (stereo partly specified) | 3.92 h | 2.77 L/kg | 11.8 mL/min/kg | 20 h | 0.012
18 | CN(C)C(=O)Oc1ccc[n+](C)c1 | 1.8 h | 1.1 L/kg | 9.6 mL/min/kg | 1.5 h | 

Row | Structure (SMILES) | MRT | Vd | clearance | half-life | fraction unbound
19 | CCCNC(C)C(=O)Nc1c(C)csc1C(=O)OC (stereo unspecified) | 1.04 h | 7.7 L/kg | 127 mL/min/kg | 0.98 h | 0.46
20 | CCCC[P@@](=O)(O)CCCN |  |  | 1.56 mL/min/kg | 2.1 h | 
21 | CCC(C)C(=O)O[C@H]1C[C@@H](C)C=C2C=C[C@H](C)[C@H](CC[C@@H](O)C[C@@H](O)CC(=O)O)[C@H]21 (stereo partly specified) | 1.3 h | 0.87 L/kg | 7.2 mL/min/kg | 1.4 h | 0.043
22 | Cc1c(O)ccc2c1OC[C@@H](c1ccc(O)cc1)[C@H]2c1ccc(O)cc1 | 2.38 h | 1.2 L/kg | 8.42 mL/min/kg | 5.3 h | 
23 | CC(=O)NC(CO)C(=O)NC(CC(=O)O)C(=O)NC(CCCCN)C(=O)N1CCCC1C(=O)O (stereo unspecified) (Ac-SDKP-OH; configuration not given here) |  |  | 18.7 mL/min/kg | 0.08 h | 
24 | O=C(O)C(O)Cc1ccc(O)c(O)c1 (stereo unspecified) | 0.53 h | 0.38 L/kg | 17.8 mL/min/kg | 0.37 h | 
25 | CCOc1ccc2c(c1)[C@]1(CC[C@H](OCCN3CCOCC3)CC1)C(=O)N2S(=O)(=O)c1ccc(C(=O)NC(C)(C)C)cc1OC | 9.4 h | 7 L/kg | 12.3 mL/min/kg | 10.4 h | 0.1
26 | CC(C)(C)c1[nH]cnc1/C=c1\[nH]c(=O)/c(=C/c2ccccc2)[nH]c1=O | 6.7 h | 3 L/kg | 7.4 mL/min/kg | 6.3 h | 
27 | CCOc1cc(CC(=O)N[C@@H](CC(C)C)c2ccccc2N2CCCCC2)ccc1C(=O)O | 1.88 h | 0.315 L/kg | 4.92 mL/min/kg | 1.69 h | 
28 | CC(=O)OC1=C2C(C)[C@@H](OC(=O)C(O)C(CC(C)C)NC(=O)OC(C)(C)C)[C@@H]3OC(=O)O[C@]3([C@@H](OC(=O)c3ccccc3)[C@@H]3[C@]4(OC(C)=O)CO[C@@H]4C[C@H](O)[C@@]3(C)C1=O)C2(C)C (stereo partly specified) | 28.4 h | 13.8 L/kg | 8.12 mL/min/kg | 30.1 h | 
29 | CN(CCC(=O)/C=C/c1ccc(O)cc1)CCc1ccc2c(c1)OCO2 | 0.05 h | 2.13 L/kg | 713 mL/min/kg | 0.1 h | 
30 | CN(C)C1CCN(C(=O)c2ccc(NC(=O)Nc3ccc(-c4nc(N5CCOCC5)nc(N5CCOCC5)n4)cc3)cc2)CC1 | 17.6 h | 2.39 L/kg | 2.25 mL/min/kg | 35.8 h | 
31 | CC(N)CCCC(C)(C)O (stereo unspecified) | 3.24 h | 2.14 L/kg | 10.7 mL/min/kg | 2.5 h | 
32 | Cc1ccc(N(CC2=NCCN2)c2cccc(O)c2)cc1 |  |  | 42 mL/min/kg | 2.5 h | 
33 | COCCCC/C(=N\OCCN)c1ccc(C(F)(F)F)cc1 | 12.3 h | 23.5 L/kg | 31.9 mL/min/kg | 12.5 h | 0.2
34 | CCC1NC(=O)C(NC(=O)c2ncccc2O)[C@@H](C)OC(=O)C(c2ccccc2)NC(=O)C2CC(=O)C(CS[C@@H]3CN4CCC3CC4)CN2C(=O)C(Cc2ccc(N(C)C)cc2)N(C)C(=O)C2CCCN2C1=O (stereo partly drawn) ({Picolinoyl(3-OH)}-[ξThr(3R)(O-yl)][ξAbu][ξP][ξNMePhe(4-NMe2)][X1][ξPhg]; ester 1-C) | 0.7 h | 0.67 L/kg | 16 mL/min/kg | 0.87 h | 0.34
35 | CN(C)CCCN1c2ccccc2Sc2ccccc21 | 9.6 h | 8.1 L/kg | 14 mL/min/kg | 7.9 h | 0.11
36 | O=C(Nc1c(Cl)cncc1Cl)c1ccc(OC(F)F)c(OCC2CC2)c1 |  |  |  |  | 0.01
